Assay results: article PMC12169663, “Deciphering the Tumor Uptake of Heterobivalent (SST2/Albumin) [^64Cu]Cu-NODAGA-cLAB-TATEs” (Journal of Medicinal Chemistry, 2025)
Where two headings read alike, the source gives them in different places.

Columns and labels:
[1] = system: MPC tumor-bearing NMRI-nu/nu mice; design: method as in not given; conditions: previous study of the authors, ref not given, cited from earlier work
[2] = target: T1, HSA (Homo sapiens, UniProt P02768); assay: Kd[HSA] from SST2 saturation binding in presence of HSA, nonlinear regression with model of Blakeley et al.
Description: Blakeley et al. developed a mathematical model that includes radioligand, protein (herein HSA), and target receptor (herein SST2) to derive the K d[HSA] value of the radioligand from saturation binding experiments to the target receptor in the presence of HSA. The authors specified an explicit mathematical solution for their proposed cubic equation and provided this solution also in a practical format for GraphPad Prism, which allows the analysis of experimental data but also simulations.

[3] = target: T1, HSA; assay: Schild analysis of SST2 binding in the presence of HSA
Procedure: 5 Schild analysis of SST2 binding in the presence of HAS. […] Simulation was performed in GraphPad Prism (version 10.2.3) according to the solution in PRISM language provided by Blakeley et al. for their derived cubic equation. (B, C) Exemplary saturation binding curves of [^64Cu]-Cu-NODAGA-cLAB2-TATE (B) and [^64Cu]-Cu-NODAGA-TATE (C) to intact MPC cells in the presence of increasing concentrations of HSA. For each curve, data shown are mean values (±SD) of one experiment, which was performed in triplicate. […] This plot was analyzed by linear regression. The simulation data provide a slope of unity, while for [^64Cu]-Cu-NODAGA-cLAB2-TATE, a slope of 0.69 (CI of 95%: 0.48–0.90, R ^2 = 0.990) was obtained.
Analyzing the experimental data by nonlinear regression according to the model of Blakeley et al. with fixed values for [HSA], [SST2], and K d[SST2], provided the K d[HSA] values (Table ). […]
For Schild analysis, the ratio (similar to the agonist dose ratio, DR) between the apparent K d value in the presence of each HSA concentration and the K d value in the absence of HSA was calculated. Then, the logarithm of these DR minus 1 (log(DR-1)) was calculated and plotted against the log of the concentration of HSA. This plot was analyzed by linear regression with the x-intercept equals to the log(K d) value of the radioligand for HSA.

[4] = target: human serum albumin (HSA) (Homo sapiens, UniProt P02768); assay: Radiometric ultrafiltration assay for binding to HSA
Chain of human serum albumin (HSA) (P02768 25-609): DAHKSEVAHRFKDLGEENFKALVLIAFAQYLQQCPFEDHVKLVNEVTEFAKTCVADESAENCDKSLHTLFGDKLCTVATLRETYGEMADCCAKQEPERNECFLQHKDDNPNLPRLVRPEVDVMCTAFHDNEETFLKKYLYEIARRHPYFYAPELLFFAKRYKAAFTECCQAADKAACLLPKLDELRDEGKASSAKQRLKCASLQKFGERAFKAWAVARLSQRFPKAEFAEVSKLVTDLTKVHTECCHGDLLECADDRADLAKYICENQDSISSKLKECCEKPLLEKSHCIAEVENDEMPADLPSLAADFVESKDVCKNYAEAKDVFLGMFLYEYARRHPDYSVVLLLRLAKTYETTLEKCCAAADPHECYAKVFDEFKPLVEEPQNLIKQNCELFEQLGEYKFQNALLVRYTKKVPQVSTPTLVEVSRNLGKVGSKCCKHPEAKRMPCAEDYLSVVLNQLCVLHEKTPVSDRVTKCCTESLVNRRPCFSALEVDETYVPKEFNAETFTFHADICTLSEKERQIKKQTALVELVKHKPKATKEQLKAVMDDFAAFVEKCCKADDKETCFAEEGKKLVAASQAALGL
Procedure: The ultrafiltration assay used to quantify the binding of the ^64Cu-labeled peptides to HSA was performed as previously described for NODAGA-cLAB-TATEs. , Briefly, a constant activity amount of the radioligands (10–15 MBq) were mixed with different HSA concentrations (200 nM–1.4 mM). Aliquots were loaded into the ultrafiltration devices (4104 centrifugal filter units by Millipore; 30 000 Da nominal molecular weight limit, methylcellulose micropartition membranes) and centrifuged. After centrifugation, aliquots from the top and bottom fractions were measured in a γ-counter (PerkinElmer, Wizard^2 2480 automatic gamma counter). The retained fraction was calculated as a quotient of these measurements. The dissociation constant, K d, was calculated using the Morrison equation.

T1 sequence (P02768 25-609): as above

Kd ([2]; 1–100 μM HSA, read-out: Kd[HSA] derived from saturation binding, range over the HSA concentrations): 2600 to 6100 nM
Kd ([2]; [HSA] 20 μM, read-out: Kd[HSA] derived from saturation binding): 3060 nM
Kd ([2]; [HSA] 40 μM, read-out: Kd[HSA] derived from saturation binding): 2590 nM
Kd ([2]; [HSA] 100 μM, read-out: Kd[HSA] derived from saturation binding): 6120 nM
slope of Schild plot ([3]; linear regression, CI of 95%: 0.48–0.90): 0.69
Kd ([3]; x-intercept of Schild plot, 5–100 μM HSA): 1800 nM
fu ([4]; 1 μM HSA, fu=Kd/(Bmax+Kd)): 0.64
fu ([4]; 5 μM HSA): 0.26
fu ([4]; 20 μM HSA): 0.08
fu ([4]; 40 μM HSA): 0.04
fu ([4]; 100 μM HSA): 0.02
SMILES: C[C@@H](O)[C@H](NC(=O)[C@@H]1CSSC[C@H](NC(=O)[C@@H](Cc2ccccc2)NC(=O)COCCOCCNC(=O)[C@H](Cc2cn(-c3ccc(C(=O)N[C@@H](CCCCNC(=O)CCCc4ccc(I)cc4)C(=O)O)cc3)nn2)NC(=O)CC[C@H](C(=O)O)N2CCN(CC(=O)O)CCN(CC(=O)O)CC2)C(=O)N[C@@H](Cc2ccc(O)cc2)C(=O)N[C@H](Cc2c[nH]c3ccccc23)C(=O)N[C@@H](CCCCN)C(=O)N[C@@H]([C@@H](C)O)C(=O)N1)C(=O)O [[64Cu]Cu-NODAGA-cLAB2-TATE, metal not drawn]
tumor SUVmean ([1]; 24 h p.i.): 3.1
tumor SUVmean ([1]; 48 h p.i.): 2.4
AUC0–48h[tumor] ([1]; same MPC model): 123 SUVmean*h
